Source: BigSolDB 2.1

COC1=CC(=O)C[C@@H](C)[C@]12Oc1c(Cl)c(OC)cc(OC)c1C2=O
solubility (mole fraction)
Settings | 278.15 K | 283.15 K | 288.15 K | 293.15 K | 298.15 K | 303.15 K | 308.15 K | 313.15 K | 318.15 K | 323.15 K
in DMF | 0.00484 | 0.00541 | 0.0061 | 0.00703 | 0.00811 | 0.00933 | 0.0106 | 0.012 | 0.0136 | 0.0155
in NMP | 0.0324 | 0.0344 | 0.0369 | 0.0394 | 0.0425 | 0.045 | 0.0479 | 0.0511 | 0.0541 | 0.0573
in acetonitrile | 0.00331 | 0.00369 | 0.00418 | 0.00473 | 0.00536 | 0.00611 | 0.00697 | 0.00795 | 0.00899 | 0.0102
in ethanol | 0.000218 | 0.000255 | 0.000303 | 0.00037 | 0.000446 | 0.000542 | 0.00065 | 0.000779 | 0.000928 | 0.00112
in methanol | 0.000246 | 0.00028 | 0.000332 | 0.000413 | 0.000517 | 0.000632 | 0.00077 | 0.000929 | 0.00111 | 0.00133
in water | 1.93e-07 | 2.5e-07 | 3.08e-07 | 3.86e-07 | 4.7e-07 | 5.7e-07 | 7.18e-07 | 8.91e-07 | 1.1e-06 | 1.36e-06
